Common to all, as to experiment: DTP human tumour cell line panel, 48 h
In experiment [1] the test system is SF-539 CNS.
Experiment [2] concerns NCI-H23 lung.
The test system of experiment [3] is EKVX NSCLC.
The test system of experiment [4] is NCI/ADR-RES ovarian.
Experiment [5] deals with MDA-MB-435.
In experiment [6] the test system is COLO 205 colon.
Experiment [7] concerns BT-549 breast.
The subject of experiment [8] is HCT-116 colon.

Data on 21 compounds can be found in PubChem BioAssay (NCI).

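A five-concentration, 48-hour dose response in 96-well plates underlies each endpoint, interpolated linearly between surrounding concentrations. Here, GI50 denotes the concentration required for 50% inhibition of growth. TGI: concentration producing complete growth inhibition.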

Take `O=C(O[C@H]1CN[C@H](C#Cc2cc3ncnc(Nc4ccc(Cc5ccccc5)cc4)c3s2)C1)N1CCOCC1`: the GI50 (as a rule, the concentration at which growth is held to half of that of the control) is 4.42 µM in experiment [1]; 6.35 µM in experiment [2]; 1.94 µM in experiment [3]; 5.72 µM in experiment [4]; 6.33 µM in experiment [5]; 5.37 µM in experiment [6]. Moreover, the GI50 in experiment [7] was 4.74 µM; in experiment [8], 4.03 µM. Also, the TGI (in general, the concentration at which net growth stops) in experiment [1] was 11.7 µM; in experiment [2] it was 24.9 µM; in experiment [3] it was more than 25 µM; in experiment [4] it was more than 23.8 µM; in experiment [5], more than 22.5 µM; in experiment [6], 13.1 µM. Besides, the total growth inhibition concentration (TGI) in experiment [7] worked out at 10.6 µM; in experiment [8], 8.16 µM.
For the compound `Cc1c(NC(=O)CCCl)c(=O)oc2c(C)c3occc(=O)c3cc12`, the TGI in experiment [2], in experiment [3], in experiment [4], in experiment [6] and in experiment [8] was more than 100 µM each time.
For the compound `O=[N+]([O-])c1ccc(Oc2cccnc2)c([N+](=O)[O-])c1`, the GI50 is 3.21 µM in experiment [1]; 4.28 µM in experiment [2]; 14.6 µM in experiment [3]; 2.35 µM in experiment [6]; 3.73 µM in experiment [7]; 2.43 µM in experiment [8]. Also, the TGI in experiment [1] is 12.1 µM; in experiment [2] it was 18.7 µM; in experiment [3], 32.2 µM; in experiment [6], 4.39 µM; in experiment [7] it was 29 µM; in experiment [8], 6.22 µM.
For the compound `C[CH2][Sn]1([CH2]C)[O]C2C(O)OC(CO)C(O)C2[O]1` (stereo unspecified), the GI50 was 17.3 µM in experiment [1]; 24.2 µM in experiment [2]; more than 100 µM in experiment [4]; 52.6 µM in experiment [5]; 35.2 µM in experiment [6]; 77.7 µM in experiment [8]. The TGI in experiment [1] was 32.5 µM; in experiment [2] it was 93 µM; in experiment [4], more than 100 µM; in experiment [5] it was more than 100 µM; in experiment [6], more than 100 µM; in experiment [8], more than 100 µM.
Take `CCOC(=O)CC(=O)N(c1ccc(OC)cc1)C(C(=O)OC)c1ccccc1` (stereo unspecified): the TGI in experiment [1], in experiment [2], in experiment [3], in experiment [4], in experiment [5] and in experiment [6] was more than 100 µM in each case. In addition, in experiment [8], the TGI was more than 100 µM.
`NC(=O)Cc1ccccc1Oc1nccc(-c2c(-c3ccc(F)cc3)ncn2C2CCNCC2)n1`: the GI50 in experiment [1], in experiment [2], in experiment [3], in experiment [4], in experiment [5] and in experiment [6] was more than 25 µM throughout. For the same compound, the GI50 in experiment [7] and in experiment [8] was more than 25 µM throughout. Moreover, the TGI in experiment [1], in experiment [2], in experiment [3], in experiment [4], in experiment [5] and in experiment [6] was more than 25 µM each time. Moreover, the TGI in experiment [7] and in experiment [8] was more than 25 µM each time.
For the compound `Clc1cccc(Cn2cc(Cc3cn(Cc4cccc(Cl)c4)c4ccccc34)c3ccccc32)c1`, the GI50 in experiment [1], in experiment [2], in experiment [5], in experiment [6], in experiment [7] and in experiment [8] was more than 100 µM in each case. In addition, the TGI in experiment [1], in experiment [2], in experiment [5], in experiment [6], in experiment [7] and in experiment [8] was more than 100 µM throughout.
With `NC(=O)c1ncn(C2OC(CO)C(O)C2O)n1` (stereo unspecified), the GI50 in experiment [2] is more than 100 µM; in experiment [3], 70.2 µM; in experiment [4] it was 54.6 µM; in experiment [5], more than 100 µM; in experiment [6], 55.2 µM; in experiment [7], more than 100 µM. Further, the GI50 in experiment [8] is 45.1 µM. Also, the TGI in experiment [2], in experiment [3], in experiment [4], in experiment [5], in experiment [6] and in experiment [7] was more than 100 µM throughout. In experiment [8], the TGI is more than 100 µM.
As for `Nc1ccn(C2OC(CO[P+](=O)OC3C(CO[P+](=O)OC4C(CO[P+](=O)OC5C(CO[P+](=O)OC6C(CO[P+](=O)OC7C(CO[P+](=O)OC8C(CO[P+](=O)OC9C(CO[P+](=O)OC%10C(CO[P+](=O)OC%11C(CO)OC(n%12ccc(N)nc%12=O)C%11(F)F)OC(n%11ccc(N)nc%11=O)C%10(F)F)OC(n%10ccc(N)nc%10=O)C9(F)F)OC(n9ccc(N)nc9=O)C8(F)F)OC(n8ccc(N)nc8=O)C7(F)F)OC(n7ccc(N)nc7=O)C6(F)F)OC(n6ccc(N)nc6=O)C5(F)F)OC(n5ccc(N)nc5=O)C4(F)F)OC(n4ccc(N)nc4=O)C3(F)F)C(O)C2(F)F)c(=O)n1` (stereo unspecified), the GI50 in experiment [3] was more than 100 µM; in experiment [6], 0.369 µM; in experiment [7] it was 0.426 µM. The TGI in experiment [3], in experiment [4], in experiment [5], in experiment [6] and in experiment [8] was more than 100 µM throughout.
On to `Cc1cc(N2CCOCC2)nc(N(CCNc2ccnc3cc(Cl)ccc23)Cc2ccco2)n1`, for which the GI50 is 1.95 µM in experiment [1]; 5.58 µM in experiment [2]; 12.7 µM in experiment [3]; 4.5 µM in experiment [4]; 3.27 µM in experiment [5]; 2.34 µM in experiment [6]. For the same compound, the GI50 in experiment [7] is 2.8 µM. In addition, the TGI in experiment [1] was 4.41 µM; in experiment [2], 35.4 µM; in experiment [3], 35.4 µM; in experiment [4], 68.8 µM; in experiment [5] it was 15.2 µM; in experiment [6], more than 100 µM. This compound also returned a TGI in experiment [7] of 8.69 µM.
Consider `COc1ccc(Nc2nc(NCc3ccccc3)c3ccccc3n2)cc1`, for which the GI50 in experiment [1] was 9.52 µM; in experiment [2], 3.02 µM; in experiment [4], 4.14 µM; in experiment [5], 1.92 µM; in experiment [6], 1.86 µM; in experiment [7], 4.57 µM. Further, the TGI in experiment [1] was 23.9 µM; in experiment [2], 13.7 µM; in experiment [4] it was 23.1 µM; in experiment [5] it was 3.85 µM; in experiment [6], 3.33 µM; in experiment [7] it was 18.2 µM.
Consider `C=CC[Se]C(=O)c1ccccc1OC(C)=O`, for which the GI50 was 1.47 µM in experiment [1]; 1.95 µM in experiment [2]; 1.6 µM in experiment [4]; 1.72 µM in experiment [5]; 2.25 µM in experiment [6]; 1.66 µM in experiment [7]. Also, the TGI was 2.8 µM in experiment [1]; 4.57 µM in experiment [2]; 4.4 µM in experiment [4]; 3.35 µM in experiment [5]; 5.01 µM in experiment [6]; 3.2 µM in experiment [7].
Take `O=Cc1ncc(-c2ccc(C(F)(F)F)cc2)c(NC2CCCCCC2)n1`: the GI50 in experiment [1], in experiment [2], in experiment [4], in experiment [5], in experiment [6] and in experiment [7] was more than 10 µM each time. The GI50 in experiment [8] was more than 10 µM. The TGI in experiment [1], in experiment [2], in experiment [4], in experiment [5], in experiment [6] and in experiment [7] was more than 10 µM each time. Further, the TGI in experiment [8] is more than 10 µM.
Regarding `COc1cc(C2=Nc3c/c(=C\c4c(O)[nH]c5ccc(Cl)cc45)ccc3=N2)cc(OC)c1OC`, the GI50 was 4 µM in experiment [1]; 1.96 µM in experiment [2]; 5.96 µM in experiment [4]; 1.73 µM in experiment [5]; 2.45 µM in experiment [6]; 2.51 µM in experiment [7]. The GI50 in experiment [8] was 1.56 µM. Besides, the TGI in experiment [1] came out at 15.9 µM; in experiment [2] it was 7.61 µM; in experiment [4], 54.7 µM; in experiment [5] it was 3.86 µM; in experiment [6], 7.27 µM; in experiment [7] it was 9.94 µM. Moreover, the TGI in experiment [8] was 3.54 µM.
Consider `COc1cc(-c2nn(C)nc2-c2cc3ccccc3s2)cc(OC)c1OC`, for which the GI50 in experiment [1] was 0.149 µM; in experiment [2], 0.392 µM; in experiment [3], 0.466 µM; in experiment [4], 0.103 µM; in experiment [5], 0.0257 µM; in experiment [6], 0.082 µM. In addition, in experiment [8], the GI50 is 0.0738 µM. For the same compound, the TGI in experiment [1] is 0.903 µM; in experiment [2], more than 100 µM; in experiment [3], more than 100 µM; in experiment [4] it was more than 100 µM; in experiment [5], 0.0995 µM; in experiment [6] it was 0.515 µM. Moreover, the TGI in experiment [8] is more than 100 µM.
Turning to `CCOc1ccc(/C=N/Nc2cc(C)nc3ccc(Cl)cc23)cc1`, the GI50 was 1.97 µM in experiment [1]; 1.76 µM in experiment [2]; 2.18 µM in experiment [3]; 1.9 µM in experiment [4]; 1.75 µM in experiment [5]; 1.91 µM in experiment [6]. Besides, the GI50 in experiment [7] was 1.61 µM. For the same compound, the TGI in experiment [1] was determined as 3.4 µM; in experiment [2] it was 3.32 µM; in experiment [3], 5.25 µM; in experiment [4] it was 3.86 µM; in experiment [5] it was 3.26 µM; in experiment [6] it was 3.47 µM. In addition, the TGI in experiment [7] was found to be 3.15 µM.
Consider `NCC(=O)Nc1ccc(-n2nc(C(F)(F)F)cc2-c2ccc3c(ccc4ccccc43)c2)cc1`, for which the GI50 was 1.06 µM in experiment [1]; 1.78 µM in experiment [2]; 1.12 µM in experiment [4]; 1.36 µM in experiment [6]; 0.761 µM in experiment [8]. Also, the TGI in experiment [1] was 2.41 µM; in experiment [2] it was 3.75 µM; in experiment [4] it was 3.12 µM; in experiment [6], 2.89 µM; in experiment [8] it was 2 µM.
With `CCCCN(CCCC)c1cc(C(=O)CCCCCN)c2ccccc2n1`, the GI50 in experiment [1] is 1.95 µM; in experiment [2] it was 1.89 µM; in experiment [3], 4.99 µM; in experiment [4] it was 1.78 µM; in experiment [7] it was 8.57 µM; in experiment [8] it was 1.78 µM. Further, the TGI was determined as 3.41 µM in experiment [1]; 3.8 µM in experiment [2]; 23.1 µM in experiment [3]; 3.61 µM in experiment [4]; 23.4 µM in experiment [7]; 3.16 µM in experiment [8].
Consider `O=C(/C=C/c1ccccc1O)c1ccccc1`, for which the GI50 in experiment [1] is 15.4 µM; in experiment [2] it was 9.63 µM; in experiment [3], 11 µM; in experiment [4], 21.7 µM; in experiment [5] it was 6.02 µM; in experiment [6], 17.3 µM. For the same compound, in experiment [8], the GI50 was 1.58 µM. In addition, the TGI in experiment [1] was 34.1 µM; in experiment [2] it was 23.2 µM; in experiment [3], 29.2 µM; in experiment [4] it was more than 100 µM; in experiment [5], 21.1 µM; in experiment [6] it was 38 µM. The same compound showed a total growth inhibition concentration (TGI) in experiment [8] of 2.99 µM.
Regarding `O=C(Nc1cccc(-n2cc(-c3ccncc3)c(-c3cc(O)cc(Cl)c3)n2)c1)Nc1ccc(Cl)c(Cl)c1`, the GI50 in experiment [1] was 1.44 µM; in experiment [2], 2.41 µM; in experiment [4], 3.21 µM; in experiment [6], 1.96 µM; in experiment [7], 2.06 µM; in experiment [8] it was 1.74 µM. The TGI in experiment [1] is 3.27 µM; in experiment [2] it was 6.29 µM; in experiment [4], more than 100 µM; in experiment [6], 3.78 µM; in experiment [7], 5.22 µM; in experiment [8], 4.1 µM.
For `CCCCC(SC(=S)N(CC)CC)C(=O)Nc1nc(CC(=O)OCC)cs1` (stereo unspecified), the GI50 in experiment [1] is 34.6 µM; in experiment [3] it was 45.7 µM; in experiment [4], 42.9 µM; in experiment [5], 31.4 µM; in experiment [7], 39 µM; in experiment [8], 29.8 µM. Further, the TGI in experiment [1], in experiment [3], in experiment [4], in experiment [5], in experiment [7] and in experiment [8] was more than 100 µM throughout.
